{
  "source": "patent US20140170199A1",
  "about": "“PARASITICIDAL COMBINATION COMPRISING INDOXACARB AND DELTAMETHRIN” (priority 2011, published 2014)",
  "key": {"[1]": {"tested_on": "voltage-dependent sodium channels expressed in DUM neurons", "assay": "Whole-cell patch-clamp of voltage-dependent inward sodium current in isolated DUM neuron cell bodies", "assay_type": "cell-based, cockroaches (Periplaneta Americana)", "description": "Experiments were performed on dorsal unpaired median (DUM) neuron cell bodies (Grolleau and Lapied (2000), J. Exp. Biol., 203, 1633-1648) isolated from the dorsal midline of the terminal abdominal ganglion of adult male cockroaches (Periplaneta Americana) taken from a stock colony, maintained at 29° C. with a photoperiod of 12 hours light:12 hours dark.\nAdult male cockroaches were immobilised dorsal-side up on a dissection dish. The dorsal cuticle, gut and some dorso-longitudinal muscles were removed, to allow access to the ventral nerve cord. The abdominal nerve cord and its terminal abdominal ganglion (TAG), carefully dissected under a binocular microscope, were placed in normal saline. Isolation of adult DUM neuron cell bodies was performed under sterile conditions using enzymatic digestion and mechanical dissociation of the median part of the TAG (Lapied et al. (1989), J. Exp. Biol., 144, 535-549).\nGanglia were excised and incubated for 35 min at 29° C. in cockroach saline supplemented with 1.5 mg/ml collagenase (type I, Worthington, Lakewood, N.J.). After thoroughly washing off the enzyme, ganglia were mechanically dissociated by gentle repeated suctions through fire-polished Pasteur pipettes. Then, the isolated DUM neuron cell bodies were maintained at 29° C. for 24 hours before experiments are carried out.\nIsolated neuronal cell bodies were used for electrophysiological studies. […] A total number of six different isolated cell bodies (six replicates) were used for each experiment.\nDeltamethrin and DCJW (IN-JT333), stock solutions (100 mM and 10 mM, respectively) were prepared in dimethylsulphoxide (DMSO, Sigma Chemical, France). Final dilutions contained a maximum of 0.1% DMSO.\nDeltamethrin and DCJW, prepared in cockroach saline, were applied separately by a gravity perfusion system onto isolated cell body maintained in short-term culture.\nExperiments were carried out at room temperature (20° C.).\nThe patch-clamp technique in the whole-cell recording configuration (voltage-clamp condition) was used to record voltage-dependent inward sodium current. […]\nFor each time point, relative sodium current amplitudes are expressed as means±standard errors of the mean (SEM) (table 2). […]\nIn addition to the concomitant application of deltamethrin and DCJW, the effect of the mixture DCJW (10^−7M) and deltamethrin (10^−5 M) on DUM neuron was assessed after a pre-treatment of the cell body by deltamethrin (10^−5 M) for 5 minutes. […]\nAs in Example 2, for each time point, relative sodium current amplitudes were expressed as means±standard errors of the mean (SEM). […]"}, "[2]": {"tested_on": "Rhipicephalus sanguineus ticks", "assay": "Tick control on dogs (experimental infestation, tick counts and efficacy)", "assay_type": "in vivo", "set-up": "Tick efficacies, arithmetic mean / Tick efficacies, geometric mean: concentration or dose not given beside the values", "description": "The SCALIBOR® collar was administered to dogs according to the instructions in the Product leaflet. The topical formulation of indoxacarb was administered to dogs in Groups 3 and 4 according to the dose table below:\nA 4% deltamethrin-impregnated collar (SCALIBOR®, Merck Animal Health) is used to protect dogs from the bites of sand flies (Phlebotomus sp.), mosquitoes (Culex sp.), and ticks for up to six months with high persistent efficacy. Immediate efficacy of the collar against fleas is known to be inadequate.\nThe study was conducted on four groups of eight dogs each. • Group 1: Negative control. • Group 2: Dogs were fitted with the Scalibor® collar on Day 0. • Group 3: Dogs were treated with a topical formulation of indoxacarb on Days 0, 30, 60, 90, 120, 150, and 180 (once a month for 6 months). • Group 4: Dogs were fitted with the Scalibor® collar (4% deltamethrin) on Day 0 and treated with a topical formulation of indoxacarb on Days 0, 30, 60, 90, 120, 150, and 180 (once a month for 6 months). Dogs were experimentally infested with 100 fleas and 50 ticks two days before treatment (Day 0) and then on various days throughout the study.\nEfficacy against ticks and fleas was calculated for each treatment group at each assessment day according to the formulas given below. Due to the fact that small and even zero tick and flea counts were recorded, it was expected that the tick and flea counts would not follow a normal distribution. It was therefore decided that the primary efficacy calculations would be based on geometric means rather than arithmetic means. The calculations were based on the geometric means of the tick or flea (count+1) data. One (1) was subsequently subtracted from the result to obtain a meaningful value for the geometric mean of each treatment group. Efficacy calculations based on arithmetic means were, however, also reported on.\nPercent efficacy against ticks was calculated as follows:\nEfficacy(%)=100×(Gmc−Gmt)/Gmc, where:\nGmc=Geometric or arithmetic mean number of live ticks (categories 1-3) on dogs in the control group (Group 1) at a specific time point. Gmt=Geometric or arithmetic mean number of live ticks (categories 1-3; immediate Day+2 efficacy) and dead attached engorged ticks (category 6; residual >Day+2 efficacies) on dogs in the treatment groups (Groups 2, 3 & 4) at a specific time point."}, "[3]": {"conditions": "DCJW 10^-7 M alone, after 20 minutes"}, "[4]": {"conditions": "Day +2 (immediate), vs negative control"}, "[5]": {"conditions": "Day +2, count ~48 h after treatment or infestation"}, "[6]": {"conditions": "Day +16, count ~48 h after infestation"}, "[7]": {"conditions": "Day +30, count ~48 h after infestation"}, "[8]": {"conditions": "Day +44, count ~48 h after infestation"}, "[9]": {"conditions": "Day +72, count ~48 h after infestation"}, "[10]": {"conditions": "Day +100, count ~48 h after infestation"}, "[11]": {"conditions": "Day +128, count ~48 h after infestation"}, "[12]": {"conditions": "Day +156, count ~48 h after infestation"}, "[13]": {"conditions": "Day +170, count ~48 h after infestation"}, "[14]": {"conditions": "Day +184, count ~48 h after infestation"}},
  "data": [
    {"smiles": "N#Cc1ccc(CC(=NNC(=O)Nc2ccc(OC(F)(F)F)cc2)c2cccc(C(F)(F)F)c2)cc1", "note": "(mixture of isomers) [metaflumizone E/Z, (EZ)-2012-(4-cyanophenyl)-1-(a,a,a-trifluoro-mtolypethylidene]-4 (trifluoromethoxy) carbanilohydrazide]", "values": [
      {"measurement": "Effect on the sodium current amplitude", "setting": "[1]; bath application at different concentrations (10^-10 to 10^-5 M), alone", "result": "produced a reduction of the sodium current amplitude"},
      {"measurement": "Dose dependence of the reduction of sodium current amplitude", "setting": "[1]; different concentrations (10^-10 to 10^-5 M), alone", "result": "not dose-dependent"}
    ]},
    {"smiles": "COC(=O)C12Cc3cc(Cl)ccc3C1=NN(C(=O)Nc1ccc(OC(F)(F)F)cc1)CO2", "note": "(stereo not shown) [DCJW, methyl 7-chloro-2,5-dihydro-2-[[[4-(trifluoromethoxy)phenyl]amino]carbonyl]indeno-[1,2-e][1,3,4]oxadiazine-4a(3H)-carboxylate]", "values": [
      {"measurement": "Percentage of inhibition of the sodium current amplitude", "setting": "[1]; [3]", "result": 40.7, "unit": "%"},
      {"measurement": "Sodium current amplitude (relative to control current 100%)", "setting": "[1]; [3]", "result": 59.3, "unit": "%"}
    ]},
    {"smiles": "CC1(C)[C@H](C(=O)O[C@H](C#N)c2cccc(Oc3ccccc3)c2)[C@@H]1C=C(Br)Br", "note": "[deltamethrin, (S)-α-Cyano-3-phenoxybenzyl-(1R,3R)-3-(2,2-dibromovinyl)-2,2-dimethylcyclopropanecarboxylate]", "values": [
      {"measurement": "Tick efficacies, geometric mean", "setting": "[2]; [4]", "result": 76.9, "unit": "%"}
    ]},
    {"smiles": "COC(=O)N(C(=O)N1CO[C@@]2(C(=O)OC)Cc3cc(Cl)ccc3C2=N1)c1ccc(OC(F)(F)F)cc1", "note": "[indoxacarb, (5)-methyl 7-chloro-2,5-dihydro-2-[[(methoxycarbonyl) [4-(trifluoromethoxy)phenyl]amino]carbonyl]indeno[1,2-e][1,3,4]oxadiazine-4a(3H)-carboxylate]", "values": [
      {"measurement": "Tick efficacies, arithmetic mean", "setting": "[2]; [4]", "result": 13.3, "unit": "%"},
      {"measurement": "Tick efficacies, geometric mean", "setting": "[2]; [4]", "result": 15.5, "unit": "%"},
      {"measurement": "Tick counts, arithmetic mean", "setting": "[2]; [5]", "result": 18.8},
      {"measurement": "Tick counts, geometric mean", "setting": "[2]; [5]", "result": "18.1^4"},
      {"measurement": "Immediate or persistent effectiveness against R. sanguineus ticks", "setting": "[2]; Day +2 to Day 184", "result": "No immediate or persistent effectiveness"},
      {"measurement": "Tick counts, arithmetic mean", "setting": "[2]; [6]", "result": 13.8},
      {"measurement": "Tick counts, geometric mean", "setting": "[2]; [6]", "result": "12.1^4"},
      {"measurement": "Tick efficacies, arithmetic mean", "setting": "[2]; Day +16, vs negative control", "result": 34.3, "unit": "%"},
      {"measurement": "Tick efficacies, geometric mean", "setting": "[2]; Day +16, vs negative control", "result": 37.4, "unit": "%"},
      {"measurement": "Tick counts, arithmetic mean", "setting": "[2]; [7]", "result": 14.0},
      {"measurement": "Tick counts, geometric mean", "setting": "[2]; [7]", "result": "9.8^2,4"},
      {"measurement": "Tick efficacies, arithmetic mean", "setting": "[2]; Day +30, vs negative control", "result": 42.0, "unit": "%"},
      {"measurement": "Tick efficacies, geometric mean", "setting": "[2]; Day +30, vs negative control", "result": 58.7, "unit": "%"},
      {"measurement": "Tick counts, arithmetic mean", "setting": "[2]; [8]", "result": 18.4},
      {"measurement": "Tick counts, geometric mean", "setting": "[2]; [8]", "result": "18.0^4"},
      {"measurement": "Tick efficacies, arithmetic mean", "setting": "[2]; Day +44, vs negative control", "result": 25.0, "unit": "%"},
      {"measurement": "Tick efficacies, geometric mean", "setting": "[2]; Day +44, vs negative control", "result": 25.8, "unit": "%"},
      {"measurement": "Tick counts, arithmetic mean", "setting": "[2]; [9]", "result": 24.5},
      {"measurement": "Tick counts, geometric mean", "setting": "[2]; [9]", "result": "23.5^4"},
      {"measurement": "Tick efficacies, arithmetic mean", "setting": "[2]; Day +72, vs negative control", "result": 20.0, "unit": "%"},
      {"measurement": "Tick efficacies, geometric mean", "setting": "[2]; Day +72, vs negative control", "result": 20.9, "unit": "%"},
      {"measurement": "Tick counts, arithmetic mean", "setting": "[2]; [10]", "result": 18.3},
      {"measurement": "Tick counts, geometric mean", "setting": "[2]; [10]", "result": "16.0^4"},
      {"measurement": "Tick efficacies, arithmetic mean", "setting": "[2]; Day +100, vs negative control", "result": 35.4, "unit": "%"},
      {"measurement": "Tick efficacies, geometric mean", "setting": "[2]; Day +100, vs negative control", "result": 40.9, "unit": "%"},
      {"measurement": "Tick counts, arithmetic mean", "setting": "[2]; [11]", "result": 24.5},
      {"measurement": "Tick counts, geometric mean", "setting": "[2]; [11]", "result": "22.6^4"},
      {"measurement": "Tick efficacies, arithmetic mean", "setting": "[2]; Day +128, vs negative control", "result": 12.1, "unit": "%"},
      {"measurement": "Tick efficacies, geometric mean", "setting": "[2]; Day +128, vs negative control", "result": 16.0, "unit": "%"},
      {"measurement": "Tick counts, arithmetic mean", "setting": "[2]; [12]", "result": 25.4},
      {"measurement": "Tick counts, geometric mean", "setting": "[2]; [12]", "result": "25.0^4"},
      {"measurement": "Tick efficacies, arithmetic mean", "setting": "[2]; Day +156, vs negative control", "result": 12.1, "unit": "%"},
      {"measurement": "Tick efficacies, geometric mean", "setting": "[2]; Day +156, vs negative control", "result": 12.2, "unit": "%"},
      {"measurement": "Tick counts, arithmetic mean", "setting": "[2]; [13]", "result": 21.1},
      {"measurement": "Tick counts, geometric mean", "setting": "[2]; [13]", "result": "19.9^4"},
      {"measurement": "Tick efficacies, arithmetic mean", "setting": "[2]; Day +170, vs negative control", "result": 18.4, "unit": "%"},
      {"measurement": "Tick efficacies, geometric mean", "setting": "[2]; Day +170, vs negative control", "result": 20.0, "unit": "%"},
      {"measurement": "Tick counts, arithmetic mean", "setting": "[2]; [14]", "result": 18.3},
      {"measurement": "Tick counts, geometric mean", "setting": "[2]; [14]", "result": "17.1^4"},
      {"measurement": "Tick efficacies, arithmetic mean", "setting": "[2]; Day +184, vs negative control", "result": 25.1, "unit": "%"},
      {"measurement": "Tick efficacies, geometric mean", "setting": "[2]; Day +184, vs negative control", "result": 28.3, "unit": "%"}
    ]}
  ]
}
